Source: article PMC5660193, “The antimalarial activity of the pantothenamide α-PanAm is via inhibition of pantothenate phosphorylation” (Scientific Reports, 2017)
Residue numbers refer to the chain shown, from its start.

Columns and labels:
Assay type in all cases: biochemical
His6-CAB1 [1] = biological target: T1, His6-CAB1 (Saccharomyces cerevisiae, UniProt Q04430); experiment: Kinase-Glo ATP depletion and LC-MS of phosphorylated product; settings: 10 µM compound, 100 µM ATP, no pantothenate, 10 mM MgCl2, pH 7.4, room temperature
T1 sequence (Q04430 1-367): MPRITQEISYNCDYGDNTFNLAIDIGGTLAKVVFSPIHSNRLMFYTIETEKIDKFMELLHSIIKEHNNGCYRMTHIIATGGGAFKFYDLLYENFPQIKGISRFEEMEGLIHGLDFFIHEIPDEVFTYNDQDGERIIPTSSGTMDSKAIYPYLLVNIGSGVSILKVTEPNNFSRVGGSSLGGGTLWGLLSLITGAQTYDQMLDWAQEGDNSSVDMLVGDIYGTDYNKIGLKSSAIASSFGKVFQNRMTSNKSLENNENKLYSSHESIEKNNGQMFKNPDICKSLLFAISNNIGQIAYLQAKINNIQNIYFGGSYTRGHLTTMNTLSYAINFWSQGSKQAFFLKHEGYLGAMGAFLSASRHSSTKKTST

His6-CAB1 [2] = biological target: T1, His6-CAB1; experiment: radioactive pantothenate kinase assay; settings: 50 µM 14C-pantothenate, 2.5 mM ATP, 2.5 mM MgCl2, pH 7.4
His6-CAB1 [3] = biological target: T2, His6-CAB1 (Saccharomyces cerevisiae, UniProt Q04430, G351S); experiment: radioactive pantothenate kinase assay; settings: 50 µM 14C-pantothenate, 2.5 mM ATP, 2.5 mM MgCl2, pH 7.4
T2 sequence (Q04430 1-367 G351S): T1 sequence (Q04430 1-367) with G351S

Cab1p (yeast PanK) = biological target: T3, Cab1p (yeast PanK) (Saccharomyces cerevisiae, UniProt Q04430); experiment: radioactive pantothenate kinase assay, double reciprocal plots; settings: competitive with pantothenate; 2.5 mM ATP, 2.5 mM MgCl2, pH 7.4, 30 °C; enzyme source for Ki not restated (yeast extract as for Km)
T3 construct: gene CAB1; native untagged enzyme in cell-free extract of wild-type yeast
T3 sequence (Q04430 1-367): T1 sequence (Q04430 1-367)

His6-CAB1 [4] = biological target: T1, His6-CAB1; experiment: Kinase-Glo luminescent assay; settings: 10 µM compound, 100 µM pantothenate, 100 µM ATP, 10 mM MgCl2, pH 7.4, room temperature

In the case of `CC(CNC(=O)[C@H](O)C(C)(C)CO)C(=O)NCCc1ccccc1` (stereo partly drawn) [α-PanAm, (2 R)-2,4-dihydroxy-3,3-dimethyl-N-(2-methyl-3-oxo-3-(phenethylamino)propyl)butanamide], the “Kinase-Glo ATP depletion and LC-MS of phosphorylated product” value (His6-CAB1 [1]) is reported as “detected the mass of phosphorylated α-PanAm (P-α-PanAm) in the presence of active Cab1”, the relative enzyme activity (His6-CAB1 [2]) is reported as “PanK activities of purified His6-CAB1 and His6-cab1^G351S mutant proteins were measured” and the relative enzyme activity (His6-CAB1 [3]) is reported as “PanK activities of purified His6-CAB1 and His6-cab1^G351S mutant proteins were measured”. For the same molecule, the Ki (Cab1p (yeast PanK)) was 10.1 ± 0.85 µM.

With `CSc1cccc(NC(=O)CCc2c(C)nc3c4cccnc4nn3c2C)c1` [NED7, 3-(2,4-dimethylpyrido-[2′,3′:3,4]pyrazolo[1,5-a]pyrimidin-3-yl)-N-(3-(methylthio)phenyl) propanamide] the “inhibition at 10 μM” value (His6-CAB1 [4]) was “resulted in increased luciferase activity in the presence of Cab1”.
